Results on nine molecules are retold here after ChEMBL document CHEMBL1201862, “PubChem BioAssay data set” (2004).

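Exposure lasted 48 hours, with cells grown in 96-well plates and compounds tested at five concentrations. Here, GI50 denotes the concentration required for 50% inhibition of growth.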 Active and inactive are the calls of the source. Cut-off read from the data, not from the text of the source: active = GI50 up to about 1.1 µM and inactive = higher. A value given as a limit tells only on which side of the number the result lay.

Among the test systems are 786-0; HOP-62; OVCAR-3; NCI/ADR-RES; MDA-MB-435; K562; SR; COLO 205; RPMI-8226; SW-620; MCF7; SK-MEL-2; MDA-N; SNB-75; UO-31; U-251; A498; ACHN; TK-10; UACC-257.
What all share (test): inhibition of tumour cell growth, NCI panel, 48 h

`Cc1nc2c(nc1C)-c1c(c3c(n1Cc1ccccc1)C(=O)CCC3)C(=O)C2=O`: the GI50 in the assay on 786-0 was 3.42 µM (inactive); in the assay on HOP-62, 8.79 µM (inactive); in the assay with OVCAR-3, 2.38 µM (inactive); in the assay on NCI/ADR-RES, 3.84 µM (inactive); in the assay on MDA-MB-435, 2.31 µM (inactive); in the assay on K562, 2.96 µM (inactive). The GI50 in the assay on SR is 2.1 µM (inactive); in the assay with COLO 205 it was 30.5 µM (inactive); in the assay with RPMI-8226, 1.84 µM (inactive); in the assay with SW-620 it was 3.07 µM (inactive); with MCF7, 2.29 µM (inactive); in the assay on SK-MEL-2, 5.08 µM (inactive). In addition, the GI50 is 2.21 µM (inactive) in the assay on MDA-N; 3.48 µM (inactive) with SNB-75; 2.08 µM (inactive) in the assay with UO-31; 2.9 µM (inactive) in the assay with U-251; 18.8 µM (inactive) in the assay on A498; 2.07 µM (inactive) in the assay with ACHN. For the same molecule, the GI50 in the assay on TK-10 is 18.8 µM (inactive); in the assay with UACC-257 it was 6.37 µM (inactive).
Take `Cc1[nH]c(=O)nc(N/N=C/c2ccc(Cl)cc2)c1C(=O)Nc1ccc(Cl)cc1`: the GI50 is 19.4 µM (inactive) in the assay with 786-0; 10.6 µM (inactive) in the assay on HOP-62; 8.97 µM (inactive) with OVCAR-3; 34.1 µM (inactive) with NCI/ADR-RES; 39.4 µM (inactive) in the assay on MDA-MB-435; 22.9 µM (inactive) with K562. Further, the GI50 in the assay with SR was 44.3 µM (inactive); in the assay with COLO 205, 25.6 µM (inactive); in the assay on RPMI-8226 it was 22.1 µM (inactive); in the assay with SW-620, 16.6 µM (inactive); in the assay with MCF7, > 65.5 µM (inactive); in the assay with SK-MEL-2 it was 76.6 µM (inactive). Besides, the GI50 with MDA-N is 31.6 µM (inactive); with SNB-75, 6.05 µM (inactive); with UO-31, > 100 µM (inactive); in the assay with U-251 it was 14.5 µM (inactive); in the assay on A498, 32.6 µM (inactive); in the assay on ACHN it was 54.8 µM (inactive). The GI50 in the assay on TK-10 was 27.6 µM (inactive); in the assay on UACC-257, 31 µM (inactive).
Turning to `N#Cc1c(O)cc(=O)n2c1[nH]c1ccccc12`, the GI50 in the assay on 786-0, in the assay with HOP-62, in the assay with OVCAR-3, in the assay on NCI/ADR-RES, in the assay on MDA-MB-435 and with K562 was > 100 µM (inactive) in each case. Further, the GI50 with SR, in the assay with COLO 205, in the assay on RPMI-8226, in the assay with SW-620, in the assay on MCF7 and in the assay on SK-MEL-2 was > 100 µM (inactive) throughout. For the same molecule, the GI50 in the assay with MDA-N, with SNB-75, in the assay on UO-31, in the assay with U-251, in the assay on A498 and in the assay with ACHN was > 100 µM (inactive) in each case. Further, the GI50 in the assay with TK-10 and in the assay on UACC-257 was > 100 µM (inactive) throughout.
Turning to `OCC1OC(c2scc3c(=S)[nH]cnc23)C(O)C1O` (stereo not given), the GI50 with 786-0 is 8.99 µM (inactive); in the assay with HOP-62, 10.7 µM (inactive); in the assay with OVCAR-3 it was 2.19 µM (inactive); with NCI/ADR-RES, 3.05 µM (inactive); with MDA-MB-435, 20.4 µM (inactive); with K562, 13.6 µM (inactive). Besides, the GI50 with SR was 29.1 µM (inactive); in the assay with COLO 205 it was 11.2 µM (inactive); in the assay on RPMI-8226, 9.31 µM (inactive); with SW-620, 6.76 µM (inactive); with MCF7 it was 2.8 µM (inactive); in the assay on SK-MEL-2, 13.4 µM (inactive). The GI50 in the assay with MDA-N is 15 µM (inactive); with SNB-75, 2.32 µM (inactive); with UO-31, 6.08 µM (inactive); in the assay on U-251, > 93.3 µM (inactive); in the assay with A498 it was 6.84 µM (inactive); in the assay with ACHN it was 4.84 µM (inactive). Besides, the GI50 in the assay with TK-10 is 5.45 µM (inactive); in the assay with UACC-257, 42.4 µM (inactive).
On to `CC1(C)CCCCCCCCCC2CC2CCC(C)(C)C1=O` (stereo not given), for which the GI50 was 17.2 µM (inactive) in the assay with 786-0; 21.8 µM (inactive) with HOP-62; 12.7 µM (inactive) in the assay with OVCAR-3; 21 µM (inactive) in the assay with NCI/ADR-RES; 23 µM (inactive) in the assay with MDA-MB-435; 15.6 µM (inactive) in the assay with K562. Also, the GI50 in the assay on SR is 6.59 µM (inactive); in the assay with COLO 205, 18.5 µM (inactive); in the assay with RPMI-8226 it was 24 µM (inactive); with SW-620, 35.9 µM (inactive); in the assay on MCF7 it was 16.4 µM (inactive); in the assay on SK-MEL-2 it was 18.6 µM (inactive). Moreover, the GI50 in the assay on MDA-N is 30.9 µM (inactive); in the assay with SNB-75, 28.6 µM (inactive); with UO-31 it was 19.6 µM (inactive); in the assay with U-251 it was 18.7 µM (inactive); in the assay on A498, 37.4 µM (inactive); in the assay on ACHN it was 19.1 µM (inactive). The GI50 with TK-10 is 22.9 µM (inactive); in the assay with UACC-257, 23.6 µM (inactive).
As to `CCOC(=O)/C=C(/C(=O)OCC)n1cc(C)c(=O)n(Cc2cnnn2COCCOC(C)=O)c1=O`, the GI50 is 7.31 µM (inactive) in the assay on 786-0; 49.7 µM (inactive) in the assay with HOP-62; 15.3 µM (inactive) in the assay with OVCAR-3; 23.6 µM (inactive) with NCI/ADR-RES; 14.4 µM (inactive) with MDA-MB-435; 2.99 µM (inactive) in the assay on K562. Also, the GI50 was 4.91 µM (inactive) in the assay on SR; 3.79 µM (inactive) with COLO 205; 8.59 µM (inactive) in the assay with RPMI-8226; 3.81 µM (inactive) with SW-620; 10.5 µM (inactive) with MCF7; 28.4 µM (inactive) in the assay with SK-MEL-2. Moreover, the GI50 in the assay with MDA-N is 23.1 µM (inactive); in the assay with SNB-75 it was 24.9 µM (inactive); in the assay on UO-31, 16.7 µM (inactive); with U-251, 20.4 µM (inactive); in the assay with A498, 29.2 µM (inactive); in the assay on ACHN, 6.05 µM (inactive). Besides, the GI50 in the assay with TK-10 was 5.24 µM (inactive); in the assay with UACC-257 it was 13.5 µM (inactive).
Take `O=C1Nc2ccc([N+](=O)[O-])cc2/C1=N/NC(=S)Nc1ccccc1`: the GI50 with 786-0 is 5.43 µM (inactive); with HOP-62, 8.57 µM (inactive); in the assay with OVCAR-3, 10 µM (inactive); in the assay with NCI/ADR-RES it was 2.47 µM (inactive); in the assay on MDA-MB-435, 10.1 µM (inactive); with K562, 4.92 µM (inactive). Moreover, the GI50 with SR was 5.26 µM (inactive); with COLO 205 it was 11.7 µM (inactive); in the assay on RPMI-8226, 15.5 µM (inactive); in the assay on SW-620, 8.99 µM (inactive); in the assay on MCF7, 4.41 µM (inactive); in the assay on SK-MEL-2, 11.9 µM (inactive). The GI50 is 6.35 µM (inactive) with MDA-N; 7.57 µM (inactive) in the assay with SNB-75; 4.79 µM (inactive) in the assay on UO-31; 4.93 µM (inactive) in the assay with U-251; 3.56 µM (inactive) in the assay with A498; 3.23 µM (inactive) in the assay on ACHN. The GI50 with TK-10 is 6.11 µM (inactive); in the assay with UACC-257 it was 12.7 µM (inactive).
Turning to `COc1ccc2oc(=O)c(-c3nc4ccccc4o3)cc2c1`, the GI50 in the assay with 786-0 is > 100 µM (inactive); in the assay on HOP-62, 64.9 µM (inactive); in the assay with OVCAR-3, 59.4 µM (inactive); with NCI/ADR-RES, 40.5 µM (inactive); in the assay on MDA-MB-435 it was 16.7 µM (inactive); with K562 it was 69.5 µM (inactive). Further, the GI50 was 5.25 µM (inactive) in the assay on SR; 81.7 µM (inactive) in the assay with COLO 205; 98.2 µM (inactive) in the assay with RPMI-8226; > 100 µM (inactive) in the assay with SW-620; 32.7 µM (inactive) in the assay on MCF7; > 100 µM (inactive) with SK-MEL-2. Besides, the GI50 with MDA-N is 29.1 µM (inactive); with SNB-75, 55.1 µM (inactive); in the assay on UO-31 it was > 100 µM (inactive); in the assay with U-251, > 100 µM (inactive); with A498 it was 67.9 µM (inactive); in the assay with ACHN, > 100 µM (inactive). In addition, the GI50 in the assay on TK-10 and in the assay with UACC-257 was > 100 µM (inactive) throughout.
Consider `Cc1ccc2c(ccc(/C=C/c3ccc(O)c4ncccc34)[n+]2C)c1`, for which the GI50 was 5.57 µM (inactive) in the assay with 786-0; 6.85 µM (inactive) in the assay on HOP-62; 0.817 µM (active) in the assay with OVCAR-3; > 49.5 µM (inactive) with NCI/ADR-RES; > 30.4 µM (inactive) with MDA-MB-435; 3.11 µM (inactive) in the assay with K562. Further, the GI50 with SR is 2.74 µM (inactive); in the assay on COLO 205, 5.38 µM (inactive); with RPMI-8226, 13.9 µM (inactive); in the assay with SW-620 it was 4.65 µM (inactive); in the assay on MCF7, 7.36 µM (inactive); in the assay with SK-MEL-2, 17.3 µM (inactive). Moreover, the GI50 in the assay with MDA-N is > 24 µM (inactive); with SNB-75, 19.5 µM (inactive); in the assay with UO-31, > 33.9 µM (inactive); with U-251, 6.62 µM (inactive); with A498, 12.2 µM (inactive); in the assay on ACHN, 10 µM (inactive). In addition, the GI50 in the assay on TK-10 is 15.6 µM (inactive); in the assay on UACC-257 it was 8.04 µM (inactive).
